Laboratory results as given in patent US8445473B2, “Heteroaryl-substituted bicyclic Smac mimetics and the uses thereof” (The Regents of the University of Michigan, priority 2008, dated 2013).

B1: mature Smac protein: mature Smac/DIABLO protein, endogenous inhibitor of XIAP (protein, UniProt Q9NR28 22-239, looked up)
Diablo IAP-binding …: LCVPVVANFKKRCFSELIRPWHKTVTIGFGVTLCAVPIAQKSEPHSLSSEALMRRAVSLVTDSTSTFLSQTTYALIEAITEYTKAVYTLTSLYRQYTSLLGKMNSEEEDEVWQVIIGARAEMTSKHQEYLKLETTWMTAVGLSEMAAEAAYQTGADQASITARNHIQLVKLQVEEVHQLSRKAETKLAEAQIEELRQKTQEEGEERAESEQEAYLRED

Key:
[1] = biological target: T1, cIAP2 BIR3 domain (residues 238-349) (Homo sapiens, UniProt Q13489); assay: Fluorescence polarization competitive binding assay to cIAP2 BIR3; conditions: FP competitive binding, SM5F or SM-F1 as the tracer
T1 construct: cIAP2 BIR3 domain (residues 238-349); His-tag
T1 sequence (Q13489 238-349): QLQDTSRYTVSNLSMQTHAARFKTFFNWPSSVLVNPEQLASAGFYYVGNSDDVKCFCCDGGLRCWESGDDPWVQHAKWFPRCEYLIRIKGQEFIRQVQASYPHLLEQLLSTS
Description: (§1) In order to test the binding ability of conformationally constrained Smac mimetics to other IAP proteins (cIAP1 and cIAP2) binding assay conditions were developed. The recombinant cIAP1 BIR3 domain (residues 253-363), cIAP2 BIR3 domain (residues 238-349), fused to a His-tag, were used in the binding assays. Competitive binding assays for other IAP proteins are performed similarly as that described for XIAP BIR3.
(§2) In competitive binding experiments using SM5F as the tracer to cIAP-1 BIR3 protein, the tested compound was incubated with cIAP-1 BIR3 protein (10 nM) and SM5F (2 nM) in the assay buffer. In competitive binding experiments using SM5F as the tracer to cIAP-2 BIR3 protein, the tested compound was incubated with cIAP-2 BIR3 protein (25 nM) and SM5F (2 nM) in the assay buffer. All other procedures for cIAP-1 BIR3 and cIAP-2 BIR3 proteins were the same as those used for XIAP BIR3 protein competitive assays.
(§3) In competitive binding experiments using SM-F1 as the tracer to cIAP-1 BIR3 protein, the tested compound was incubated with cIAP-1 BIR3 protein (3 nM) and SM-F1 (1 nM) in the assay buffer. In competitive binding experiments using SM-F1 as the tracer to cIAP-2 BIR3 protein, the tested compound was incubated with cIAP-2 BIR3 protein (5 nM) and SM-F1 (1 nM) in the assay buffer.

[2] = biological target: T2, XIAP BIR3 protein (Homo sapiens, UniProt P98170); assay: Fluorescence polarization competitive binding assay to XIAP BIR3; conditions: FP competitive binding, SM5F or SM-F1 as the tracer
T2 sequence (P98170 241-356 limits assumed): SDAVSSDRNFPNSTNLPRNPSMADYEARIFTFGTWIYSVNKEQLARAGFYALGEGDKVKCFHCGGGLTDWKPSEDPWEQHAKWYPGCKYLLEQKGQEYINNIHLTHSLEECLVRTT
Source text: A sensitive and quantitative in vitro binding assay using the fluorescence polarization (FP) based method was used to determine the binding affinity of Smac mimetics to XIAP protein (Nikolovska-Coleska et al., Anal. Biochem. 332:261-73 (2004)). For this assay, 5-carboxyfluorescein (5-Fam) was coupled to the lysine side chain of the mutated Smac peptide, AbuRPF-K-(5-Fam)-NH2 (termed SM5F). Another fluorescently tagged Smac mimetic (termed SM-F1) with higher affinities than SM5F was also used.
(§4) In competitive binding experiments using SM5F as the tracer to XIAP BIR3 protein, the tested compound was incubated with XIAP BIR3 protein (30 nM) and SM5F (5 nM) in the assay buffer (100 mM potassium phosphate, pH 7.5; 100 μg/ml bovine gamma globulin; 0.02% sodium azide, Invitrogen). Dose-dependent competitive binding FP experiments were carried out with serial dilutions of tested compounds. For each assay, the bound peptide control containing recombinant XIAP BIR3 protein and SM5F (equivalent to 0% inhibition) and free peptide control containing only free SM5F (equivalent to 100% inhibition) will be included. The polarization values were measured after 3 hrs of incubation when the binding reached equilibrium using an ULTRA READER (Tecan U.S. Inc., Research Triangle Park, N.C.). IC50 values, the inhibitor concentration at which 50% of bound peptide is displaced, will be determined from a plot using nonlinear least-squares analysis. Curve fitting will be performed using GRAPHPAD PRISM software (GraphPad Software, Inc., San Diego, Calif.).
as §4, with “using SM-F1” for “using SM5F”, “protein (10” for “protein (30”, “and SM-1F (2” for “and SM5F (5”, “and SM-1F” for “and SM5F”, “free SM-1F” for “free SM5F”
Negative controls containing protein/tracer complex only (equivalent to 0% inhibition), and positive controls containing only free tracers (equivalent to 100% inhibition), were included in each assay plate. FP values were measured as described above. IC50 values were determined by nonlinear regression fitting of the competition curves. The Ki values of competitive inhibitors were calculated using the equation described before (Nikolovska-Coleska et al., Anal. Biochem. 332:261-73 (2004)), based upon the measured IC50 values, the Kd values of the tracer to different proteins, and the concentrations of the proteins and tracers in the competitive assays. Ki values were also calculated using a commonly used equation known in the literature (Huang, X. J. Biomol. Screen. 8:34-38 (2003)).

[3] = biological target: T3, cIAP1 BIR3 domain (residues 253-363) (Homo sapiens, UniProt Q13490); assay: Fluorescence polarization competitive binding assay to cIAP1 BIR3; conditions: FP competitive binding, SM5F or SM-F1 as the tracer
T3 construct: The recombinant cIAP1 BIR3 domain (residues 253-363); His-tag
T3 sequence (Q13490 253-363): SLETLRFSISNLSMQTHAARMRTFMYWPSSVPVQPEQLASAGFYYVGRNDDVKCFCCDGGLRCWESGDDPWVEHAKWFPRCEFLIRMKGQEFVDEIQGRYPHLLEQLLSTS
Description: as §1, §2, §3

[4] = tested on: MDA-MB-231 human breast cancer cell line; assay: Cell growth inhibition, WST-8 assay; type: cell-based; conditions: MDA-MB-231, 96 h, 4 days
Description: (§5) The effect of the compounds of the present invention on the growth of various cancer cell lines was tested. Cells were seeded in 96-well flat bottom cell culture plates at a density of 3000 cells/well with a tested compound and incubated at 37° C. in an atmosphere of 95% air and 5% CO2 for 4 days. The rate of cell growth inhibition after treatment with different concentrations of the compound was determined using a WST-8 kit (2-(2-methoxy-4-nitrophenyl)-3-(4-nitrophenyl)-5-(2, 4 disulfophenyl)-2H-tetrazolium monosodium salt; Dojindo Molecular Technologies, Inc., Gaithersburg, Md.). WST-8 was added at a final concentration of 10% to each well, and then the plates were incubated at 37° C. for 2-3 hrs. The absorbance of the samples was measured at 450 nm using a ULTRA Tecan Reader (Molecular Device). The concentration of the tested compound that inhibited cell growth by 50% (IC50) was calculated by comparing absorbance in untreated cells and the cells treated with the tested compound.

[5] = tested on: SK-OV-3 ovarian cancer cell line; assay: Cell growth inhibition, WST-8 assay; type: cell-based; conditions: Homo sapiens, SK-OV-3, 96 h, 4 days
Description: as §5

[6] = tested on: breast cancer MDA-MB-231 cell line; assay: Induction of cell death, trypan blue exclusion assay; type: cell-based, human; conditions: MDA-MB-231, 48 hours, FIG. 3
Description: (§6) The ability of SM-1238 to induce cell death was tested in the breast cancer MDA-MB-231 and ovarian cancer SK-OV-3 cell lines (FIG. 3). Cells were treated with SM-1238 for 48 hours and cell viability was determined using the trypan blue exclusion assay.

[7] = tested on: ovarian cancer SK-OV-3 cell line; assay: as above; type: cell-based, human; conditions: SK-OV-3, 48 hours, FIG. 3
Description: as §6

[8] = Pharmacokinetics in rats following oral administration; conditions: rat, in vivo, male Sprague-Dawley rats, 25 mg/kg, mean±SD; for AUC(0-inf) / Cmax / Tmax: n=3; for half-life: n=3, read-out: half-life (T½) (converted)
[9] = biological target: T4, recombinant cIAP-2 BIR3 (Homo sapiens, UniProt Q13489); conditions: tracer SM5F; Peng et al. 2008; cited from earlier work
T4 construct: cIAP2 BIR3 domain (residues 238-349); His-tag
T4 sequence (Q13489 238-349): as the sequence (Q13489 238-349) above

[10] = biological target: T2, XIAP BIR3 protein; conditions: tracer SM5F; Nikolovska-Coleska et al. 2004; cited from earlier work
T2 sequence (P98170 241-356 limits assumed): as the sequence (P98170 241-356 limits assumed) above

[11] = biological target: T5, recombinant cIAP-1 BIR3 (Homo sapiens, UniProt Q13490); conditions: tracer SM5F; Peng et al. 2008; cited from earlier work
T5 construct: The recombinant cIAP1 BIR3 domain (residues 253-363); His-tag
T5 sequence (Q13490 253-363): as the sequence (Q13490 253-363) above

[12] = biological target: XIAP BIR3; conditions: background statement; cited from earlier work

Row | Molecule | IC50 [1] [µM] | IC50 [2] [µM] | IC50 [3] [µM] | IC50 [4] [µM] | IC50 [5] [µM] | induction of cell death [6] | induction of cell death [7] | AUC(0-inf) [8] [µg·h/mL] | Cmax [8] [µg/mL] | Tmax [8] [h] | half-life [8] [h] | Kd [9] [µM] | Kd [10] [µM] | Kd [11] [µM] | Kd [12] [µM]
1 | CN[C@@H](C)C(=O)N[C@H]1CCCC[C@H]2CC[C@@H](c3nc(-c4ccccc4)cs3)N2C1=O [SM-1229] | < 2 | < 5 | < 2 | < 100 | < 100 |  |  |  |  |  |  |  |  |  | 
2 | CN[C@@H](C)C(=O)N[C@H]1CN(C(=O)CC(C)C)CC[C@H]2CC[C@@H](c3nc(-c4ccccc4)cs3)N2C1=O [SM-1235] | < 1 | < 0.2 | < 1 | < 3 | < 3 |  |  |  |  |  |  |  |  |  | 
3 | CN[C@@H](C)C(=O)N[C@H]1CCCC[C@H]2CC[C@@H](c3nc4c(-c5ccccc5)cccc4[nH]3)N2C1=O [SM-1237] | < 0.1 | < 0.2 | < 0.1 | < 3 | < 3 |  |  |  |  |  |  |  |  |  | 
4 | CN[C@@H](C)C(=O)N[C@H]1CN(C(=O)CC(C)C)CC[C@H]2CC[C@@H](c3nc4c(-c5ccccc5)cccc4[nH]3)N2C1=O [SM-1238] | < 0.1 | < 0.2 | < 0.1 | < 3 | < 3 | induced cell death in both cell lines in a concentration-dependant fashion | induced cell death in both cell lines in a concentration-dependant fashion | 7.1 ± 0.931 | 0.831 ± 0.135 | 2 ± 1.7 | 3.7 ± 2 |  |  |  | 
5 | CN[C@@H](C)C(=O)N[C@H]1CN(C(=O)Cc2ccccc2)CC[C@H]2CC[C@@H](c3nc4c(-c5ccccc5)cccc4[nH]3)N2C1=O [SM-1257] | < 0.1 | < 0.5 | < 0.1 | < 3 | < 3 |  |  |  |  |  |  |  |  |  | 
6 | CN[C@@H](C)C(=O)N[C@H]1CN(C(=O)Cc2ccc(F)cc2)CC[C@H]2CC[C@@H](c3nc4c(-c5ccccc5)cccc4[nH]3)N2C1=O [SM-1268] | < 0.1 | < 0.5 | < 0.1 | < 3 | < 3 |  |  | 6.49 ± 0.965 | 0.612 ± 0.016 | 2 | 4.2 ± 1 |  |  |  | 
7 | CN[C@@H](C)C(=O)N[C@H]1CN(C(=O)CCc2ccccc2)CC[C@H]2CC[C@@H](c3nc4c(-c5ccccc5)cccc4[nH]3)N2C1=O [SM-1270] | < 0.1 | < 0.5 | < 0.1 | < 3 | < 3 |  |  |  |  |  |  |  |  |  | 
8 | CN[C@@H](C)C(=O)N[C@H]1CN(C(=O)CCc2ccc(F)cc2)CC[C@H]2CC[C@@H](c3nc4c(-c5ccccc5)cccc4[nH]3)N2C1=O [SM-1271] | < 0.1 | < 0.5 | < 0.1 | < 3 | < 3 |  |  |  |  |  |  |  |  |  | 
9 | CN[C@@H](C)C(=O)N[C@H]1CN(C(=O)Cc2ccc(F)cc2)CC[C@H]2CC[C@@H](c3nc4c(-c5cccc(F)c5)cccc4[nH]3)N2C1=O [SM-1306] | < 0.1 | < 5 | < 0.1 | < 3 | < 3 |  |  |  |  |  |  |  |  |  | 
10 | CN[C@@H](C)C(=O)N[C@H]1CN(C(=O)Cc2ccc(F)cc2)CC[C@H]2CC[C@@H](c3nc4c(-c5ccc(F)cc5)cccc4[nH]3)N2C1=O [SM-1307] | < 0.1 | < 0.5 | < 0.1 | < 3 | < 3 |  |  |  |  |  |  |  |  |  | 
11 | CN[C@@H](C)C(=O)N[C@H]1CN(C(=O)Cc2ccc(F)cc2)CC[C@H]2CC[C@@H](c3nc4c(-c5ccccc5F)cccc4[nH]3)N2C1=O [SM-1308] | < 0.1 | < 0.5 | < 0.1 | < 3 | < 3 |  |  |  |  |  |  |  |  |  | 
12 | CN[C@@H](C)C(=O)N[C@H]1CN(C(=O)CC(C)C)CC[C@H]2CC[C@@H](c3nc4c(-c5ccc(F)cc5)cccc4[nH]3)N2C1=O [SM-1316] | < 0.1 | < 0.5 | < 0.1 | < 3 | < 3 |  |  | 14.3 ± 1.97 | 1.53 ± 0.275 | 2 | 6.7 ± 1.2 |  |  |  | 
13 | CN[C@@H](C)C(=O)N[C@H]1CN(C(=O)Cc2ccccc2)CC[C@H]2CC[C@@H](c3nc4c(-c5ccc(F)cc5)cccc4[nH]3)N2C1=O [SM-1317] | < 0.1 | < 0.5 | < 0.1 | < 3 | < 3 |  |  |  |  |  |  |  |  |  | 
14 | AbuRPF-K-(5-Fam)-NH2 [SM5F] |  |  |  |  |  |  |  |  |  |  |  | 0.0066 | 0.0179 | 0.0041 | 
15 | B1 |  |  |  |  |  |  |  |  |  |  |  |  |  |  | 0.42
